In patent EP0100257A2, “Aminoalkyl naphthalene derivatives, their salts, process for their preparation and the therapeutical use of these derivatives and salts” (DELALANDE S.A., priority 1982, dated 1984):

How the values were obtained:
souris [1] = assay: Phenylbenzoquinone test (analgesic activity), protocol of Siegmund; type: in vivo; conditions: ip, mouse, i.p., read-out: Propriétés analgésiques DE 50
[2] = Acute toxicity (DL 50) in mice; conditions: in vivo, ip, mouse, i.p., read-out: DL 50 souris
Excerpt: Pour illustrer l'invention, on a rassemblé dans le tableau III ci-après les résultats obtenus dans ces deux tests avec quelques composés selon l'invention. Ce tableau donne en outre la toxicité aiguë (DL 50) des composés testés.

souris [3] = assay: Antagonism of reserpine-induced ptosis (antidepressant activity), protocol of Gouret and Thomas; type: in vivo; conditions: ip, 1 h; mouse, i.p.; ptosis observed one hour after reserpine 2 mg/kg i.v.; read-out: Propriétés antidépressives DE 50
Method: L'activité antidépressive a quant à elle été mise en évidence chez la souris par le test de l'antagonisme vis-à-vis du ptosis observé une heure après une injection intraveineuse (2 mg/kg) de réserpine chez la souris selon le protocole décrit par C.

With `NCCc1cc(-c2ccccc2)c2ccccc2c1` [Numéro de code 9, chlorhydrate de l'(amino-2) éthyl-2 phényl-4 naphtalène] the ED50 (souris [1]) was 2.2 mg/kg, the LD50 [2] was 58 mg/kg and the ED50 (souris [3]) was 3 mg/kg.

`CN(C)Cc1cc(-c2ccccc2)c2ccccc2c1` [Numéro de code 2, chlorhydrate de N,N-diméthylaminométhyl-2 phényl-4 naphtalène] gave an ED50 (souris [1]) of 4.5 mg/kg, an LD50 [2] of 70 mg/kg and an ED50 (souris [3]) of 5.3 mg/kg.
